Source: paper PMC10817097, “Caffeic Acid Phosphanium Derivatives: Potential Selective Antitumor, Antimicrobial and Antiprotozoal Agents” (International Journal of Molecular Sciences, 2024)
Several values for one entry are separate records, joined by “and”; a condition that tells them apart may be missing. Identical values can stand only once. Like-named read-outs stand apart in the source and are kept apart here.

Experiments:
[1] = test system: the other tested bacteria and the strain of Candida albicans; experiment: MIC/MBC, other tested bacteria and Candida albicans; format: cell-based; details: listed as caffeic acid
Procedure: The antimicrobial activity of caffeic acid and its semi-synthetic derivates was tested against Gram-positive (Staphylococcus aureus CCM 4750, methicillin-resistant; Staphylococcus aureus CCM 4223, methicillin-susceptible; Enterococcus faecalis CCM 4224) and Gram-negative bacteria (Pseudomonas aeruginosa CCM 3955; Escherichia coli CCM 3954; Klebsiella pneumoniae CCM 4415; Proteus mirabilis CCM 7188), and one strain of a yeast Candida albicans (CCM 8267). Microbial strains were purchased from the Czech Collection of Microorganisms, Brno, Czech Republic, and preserved in aliquots in cryoprotective media at −20 °C until the testing. Revival of cryoprotected bacteria took place by overnight cultivation on blood agar and an additional passage on blood agar. Minimal inhibitory concentrations (MIC) against bacteria were detected by broth microdilution test in sterile 96-well U-shaped microtiter plates (Roll s.a.s., Piove di Sacco, Italy) according to the EUCAST recommendations. The test was performed in 100 μL volumes in microtiter plate wells with a final bacterial concentration of 5 × 10^5 CFU·mL^−1. […] The minimal bactericidal/fungicidal concentrations (MBC/MFC) were detected by point-inoculation of 5 μL aliquots from test wells without visible growth on solid agar media free of antimicrobials. […]

[2] = test system: non-pathogenic Neff's strain of Acanthamoeba castellanii; parameters: method as in Sifaoui et al. (2017) 44; details: A. castellanii Neff, 96 h of incubation, ref Sifaoui et al. (2017) 44; cited from earlier work
[3] = parameters: method as in PMID 11743793; details: cited from earlier work

- MIC/MBC [1]: exceeded 6900 μM and > 1200 μg/mL
SMILES: O=C(O)C=Cc1ccc(O)c(O)c1 [CA, 3-(3,4-dihydroxyphenyl)-2-propenoic acid, reference compound]
- IC50 (50% growth inhibition) [2]: > 100 µg/mL
- plasma levels of caffeic acid ([3]; 1 h after consumption of 300 mL red wine (about 2.8 mg caffeic acid)): 4.9 ± 0.3 ng/mL
- plasma levels of caffeic acid ([3]; 1 h after consumption of 300 mL red wine, approx. conversion): approx. 27.2 nM
